Test results taken from US20070218105A1, “Topical Treatment with NGF and DHA in Damaged Corneas” (priority 2004, published 2007).
“And” between values parts separate entries of the source, which are not always exact repeats. Equal entries are not always repeated.

Assays:
Format in all cases: in vivo, New Zealand albino rabbits
Rabbit Corneas [1] = experiment: Tear break-up time after PRK; details: for Tear Break-Up Time: mean ± Standard Error
Procedure: (§1) Twenty-one New Zealand albino rabbits weighing 1.5 to 2.0 kg were obtained from a commercial supplier and were treated in accordance with the guidelines of the Association for Research in Vision and Ophthalmology. Each rabbit received intramuscular xylazine (10 mg/kg) and ketamine hydrochloride (50 mg/kg) anesthesia. Tetracaine eye drops were used as topical anesthesia. Tear secretion tests (e.g., tear break-up time, Schirmer's test, and rose bengal staining) were performed preoperatively under general anesthesia. Each rabbit received a unilateral PRK laser treatment. The corneal epithelium was removed with an epithelial scrubber (Katena Inc, Denville, N.J.). An excimer laser ablation to correct −5 diopters of myopia using a 6.5 mm optical zone (Lasersight Technologies, Inc., Winter Park, Fla.) was performed. The eye was washed with balanced salt solution. Lubricating eye drops and an ophthalmic solution of 0.3% ofloxacin eye drops (Allergan Inc, Irvine, Calif.) were used postoperatively. Unless otherwise indicated, all chemicals were purchased from Sigmna Chemical Co. (St. Louis, Mo.).
(§2) Twenty-one New Zealand albino rabbits were divided in 4 groups. The three experimental groups consisted of 6 rabbits each. The control group had only 3 rabbits. The rabbits within each of the four groups were randomized to receive twice-weekly topical treatments through 72-hour collagen shields (Oasis Medical Inc.; Glendora, Calif.) for a total of eight weeks. The four treatments were as follows: (1) 0.1 μg NGF (25 μl) plus 100 μl phosphate buffered saline (PBS); (2) 100 μg DHA (100 μl) plus 25 μl of PBS; (3) 0.1 μg NGF (25 μl) plus 100 μg DHA (100 μl); and (4) 125 μl of PBS with albumin (control). In all animals, a tarsorrhaphy was performed on the treated eyes, and the eyes were opened only twice a week to introduce a new collagen shield.
(§3) Statistical analyses were performed using the Statistical Analysis System (SAS) software version 9.0 (SAS Institute, Cary, N.C.). The tear secretion tests (Schirmer, tear break-up time and rose bengal staining) and density of nerve areas were analyzed using a repeated measures design in the analysis of variance (ANOVA). The differences in the tear secretion tests between the four treatment groups were analyzed at each time point. The effect of the various treatments on tubulin III-, CGRP- and SP-positive epithelial and sub-basal nerve areas was evaluated with a multivariate test. Comparisons among the four treatments groups were made using adjusted least square means with alpha levels corrected by a simulation method.
Tear secretion tests (tear break-up time, Schirmer's test and rose bengal staining) were performed every 15 days over the 8-week period following PRK. All the tests were performed with general anesthesia. […]

[2] = tested on: sub-basal and epithelial nerve bundles; experiment: Class III β-tubulin staining of sub-basal and epithelial nerve bundle area after PRK; details: 8 weeks after PRK
Procedure: as §2, with “In all animals, a tarsorrhaphy was performed on the treated eyes, and the eyes were opened only twice a week to introduce a new collagen shield.” left out
as §3, with “Comparisons among the four treatments groups were made using adjusted least square means with alpha levels corrected by a simulation method.” left out
(§4) Rabbits were humanely euthanized at 8 weeks post-PRK surgery using an intravenous overdose of pentobarbital. […] Each section was evaluated with hematoxylin and eosin (H&E) stain and by immuno-histochemical analysis. […]

Rabbit Corneas [3] = experiment: Rose bengal staining after PRK; details: first postoperative month (30 days after PRK)
Procedure: as §1, with “The eye was washed with balanced salt solution. Lubricating eye drops and an ophthalmic solution of 0.3% ofloxacin eye drops (Allergan Inc, Irvine, Calif.) were used postoperatively. Unless otherwise indicated, all chemicals were purchased from Sigmna Chemical Co. (St. Louis, Mo.).” left out
as §3, with “Comparisons among the four treatments groups were made using adjusted least square means with alpha levels corrected by a simulation method.” left out

corneal epithelium = experiment: Ki-67 immunostaining of proliferating cells in corneal epithelium after PRK; details: 8 weeks after PRK
Procedure: as §2, with “In all animals, a tarsorrhaphy was performed on the treated eyes, and the eyes were opened only twice a week to introduce a new collagen shield.” left out
as §4
Photographs of the tissue sections were acquired using MetaVue version 5.0r3 (Universal Imaging Corp.; Downingtown, Pa.) and saved as a TIFF file. (Data not shown) The tubulin III-, CGRP- and SP-positive tissue nerve areas and the percentage of Ki-67 cells were calculated with respect to the total area using the image analysis program Image Pro Plus 4.5 (Media Cybernetics Inc., Silver Spring, Md.). Sub-basal and epithelial nerve areas were measured in all groups eight weeks after PRK using anti-class III β tubulin, CGRP and SP monoclonal antibodies. […]

Rabbit Corneas [4] = experiment: Schirmer's test (tear secretion) after PRK; details: mean ± Standard Error
Procedure: as §1
Twenty-one New Zealand albino rabbits were divided in 4 groups. The three experimental groups consisted of 6 rabbits each. The control group had only 3 rabbits. The rabbits within each of the four groups were randomized to receive twice-weekly topical treatments through 72-hour collagen shields (Oasis Medical Inc.; Glendora, Calif.) for a total of eight weeks. […]
as §3, with “Comparisons among the four treatments groups were made using adjusted least square means with alpha levels corrected by a simulation method.” left out

CC/C=C\C/C=C\C/C=C\C/C=C\C/C=C\C/C=C\CCC(=O)O [DHA, docosahexaenoic acid]
tear break-up time measurement (Rabbit Corneas [1]; 1 week postoperative): 14.5 s | Tear Break-Up Time (Rabbit Corneas [1]; 15 Days after PRK): 14.5 ± 6.2 s | Tear Break-Up Time (Rabbit Corneas [1]; 30 Days (1 month) after PRK): 14.0 s and 14.0 ± 4.8 s | Tear Break-Up Time (Rabbit Corneas [1]; 45 Days after PRK): 14.0 ± 4.0 s | average ratio of sub-basal tubulin-positive nerve bundle area to total area ([2]; FIG. 2A): ~1.2 | ratio of the tubulin positive nerve bundle area to the total epithelial area ([2]; epithelial layer, FIG. 2B): no significant effect | eyes with positive rose bengal staining (Rabbit Corneas [3]): 33% | percentage of Ki-67 positive epithelial cells (corneal epithelium): 6% | Schirmer's Test (Rabbit Corneas [4]; 15 Days after PRK): 10 mm and 10.0 ± 3.7 mm | Schirmer's Test (Rabbit Corneas [4]; 30 Days (1 month) after PRK): 11.5 mm and 11.5 ± 3.4 mm | Schirmer's Test (Rabbit Corneas [4]; 45 Days after PRK): 12.5 ± 2.3 mm
